Experimental data: PubChem BioAssay (NCI)
Several values for one entry are separate records, joined by “and”; a condition that tells them apart may be missing. Equal values may be shown once.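 Test compounds were applied to cells in 96-well plates for 48 hours at 5 doses. GI50 marks 50% less growth. Definition used: TGI = concentration required for complete inhibition of growth.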

What was measured:
Test in all cases: NCI tumour cell line growth inhibition, 48 h
UACC-257 melanoma = system: UACC-257 melanoma
EKVX NSCLC = system: EKVX NSCLC
NCI-H226 lung = system: NCI-H226 lung
OVCAR-8 ovarian = system: OVCAR-8 ovarian
MALME-3M melanoma = system: MALME-3M melanoma
A498 renal = system: A498 renal
SK-MEL-5 melanoma = system: SK-MEL-5 melanoma
TK-10 renal = system: TK-10 renal
NCI/ADR-RES ovarian = system: NCI/ADR-RES ovarian
HCT-15 colon = system: HCT-15 colon
OVCAR-4 ovarian = system: OVCAR-4 ovarian
K-562 leukemia = system: K-562 leukemia
DU-145 prostate = system: DU-145 prostate
MDA-MB-435 = system: MDA-MB-435
CCRF-CEM leukemia = system: CCRF-CEM leukemia
IGROV1 ovarian = system: IGROV1 ovarian
HCT-116 colon = system: HCT-116 colon
KM20L2 colon = system: KM20L2 colon
SNB-75 CNS = system: SNB-75 CNS
A549 NSCLC = system: A549 NSCLC
SK-MEL-2 melanoma = system: SK-MEL-2 melanoma
M19-MEL melanoma = system: M19-MEL melanoma
CAKI-1 renal = system: CAKI-1 renal
SK-MEL-28 melanoma = system: SK-MEL-28 melanoma
COLO 205 colon = system: COLO 205 colon
SF-539 CNS = system: SF-539 CNS
DMS 114 small cell lung = system: DMS 114 small cell lung
KM12 colon = system: KM12 colon
T-47D breast = system: T-47D breast
RXF 393 renal = system: RXF 393 renal
SF-268 CNS = system: SF-268 CNS
786-0 renal = system: 786-0 renal
OVCAR-5 ovarian = system: OVCAR-5 ovarian
HS 578T breast = system: HS 578T breast
HOP-62 NSCLC = system: HOP-62 NSCLC
LXFL 529 NSCLC = system: LXFL 529 NSCLC
U251 CNS = system: U251 CNS
RPMI-8226 leukemia = system: RPMI-8226 leukemia
HT29 colon = system: HT29 colon
HL-60(TB) leukemia = system: HL-60(TB) leukemia
ACHN renal = system: ACHN renal
SF-295 CNS = system: SF-295 CNS
BT-549 breast = system: BT-549 breast
LOX IMVI melanoma = system: LOX IMVI melanoma
UACC-62 melanoma = system: UACC-62 melanoma
NCI-H23 lung = system: NCI-H23 lung
RXF-631 renal = system: RXF-631 renal
HCC-2998 colon = system: HCC-2998 colon
SR leukemia = system: SR leukemia
SNB-19 CNS = system: SNB-19 CNS
HOP-18 NSCLC = system: HOP-18 NSCLC
NCI-H460 lung = system: NCI-H460 lung
MOLT-4 leukemia = system: MOLT-4 leukemia
DLD-1 colon = system: DLD-1 colon
PC-3 prostate = system: PC-3 prostate
SW-620 colon = system: SW-620 colon
SK-OV-3 ovarian = system: SK-OV-3 ovarian
HOP-92 NSCLC = system: HOP-92 NSCLC
UO-31 renal = system: UO-31 renal
SN12C renal = system: SN12C renal
SNB-78 CNS = system: SNB-78 CNS
OVCAR-3 ovarian = system: OVCAR-3 ovarian
MDA-MB-231 breast = system: MDA-MB-231 breast
M14 melanoma = system: M14 melanoma
DMS 273 small cell lung = system: DMS 273 small cell lung
XF 498 CNS = system: XF 498 CNS
MDA-N = system: MDA-N
NCI-H522 lung = system: NCI-H522 lung
MCF7 breast = system: MCF7 breast
P388 leukemia = system: P388 leukemia
SN12K1 renal = system: SN12K1 renal
P388/ADR leukemia = system: P388/ADR leukemia

COC(=O)/C(=N\Nc1nnc(C)n1N)C(C#N)c1ccccc1 (configuration not stated)
TGI (UACC-257 melanoma): > 100 µM | TGI (EKVX NSCLC): > 100 µM | TGI (NCI-H226 lung): > 100 µM | TGI (OVCAR-8 ovarian): > 100 µM | TGI (MALME-3M melanoma): 46.5 µM | TGI (A498 renal): > 100 µM | TGI (SK-MEL-5 melanoma): > 100 µM | TGI (TK-10 renal): > 100 µM | TGI (NCI/ADR-RES ovarian): > 100 µM | TGI (HCT-15 colon): > 100 µM | TGI (OVCAR-4 ovarian): > 67.4 µM | TGI (K-562 leukemia): > 100 µM | TGI (DU-145 prostate): > 100 µM | TGI (MDA-MB-435): 32.5 µM | TGI (CCRF-CEM leukemia): > 100 µM | TGI (IGROV1 ovarian): > 100 µM | TGI (HCT-116 colon): > 100 µM | TGI (KM20L2 colon): > 100 µM | TGI (SNB-75 CNS): > 100 µM | TGI (A549 NSCLC): > 100 µM | TGI (SK-MEL-2 melanoma): > 100 µM | TGI (M19-MEL melanoma): 32.8 µM | TGI (CAKI-1 renal): > 100 µM | TGI (SK-MEL-28 melanoma): > 100 µM | TGI (COLO 205 colon): > 100 µM | TGI (SF-539 CNS): > 100 µM | TGI (DMS 114 small cell lung): 42.8 µM | TGI (KM12 colon): > 100 µM | TGI (T-47D breast): > 100 µM | TGI (RXF 393 renal): > 100 µM | TGI (SF-268 CNS): > 100 µM | TGI (786-0 renal): > 55100 nM | TGI (OVCAR-5 ovarian): > 100 µM | TGI (HS 578T breast): > 100 µM | TGI (HOP-62 NSCLC): > 100 µM | TGI (LXFL 529 NSCLC): > 100 µM | TGI (U251 CNS): > 100 µM | TGI (RPMI-8226 leukemia): > 100 µM | TGI (HT29 colon): > 100 µM | TGI (HL-60(TB) leukemia): > 100 µM | TGI (ACHN renal): > 71.1 µM | TGI (SF-295 CNS): > 100 µM | TGI (BT-549 breast): > 100 µM | TGI (LOX IMVI melanoma): > 100 µM | TGI (UACC-62 melanoma): > 100 µM | TGI (NCI-H23 lung): > 56.1 µM | TGI (RXF-631 renal): > 100 µM | TGI (HCC-2998 colon): > 100 µM | TGI (SR leukemia): > 100 µM | TGI (SNB-19 CNS): > 100 µM | TGI (HOP-18 NSCLC): > 100 µM | TGI (NCI-H460 lung): > 100 µM | TGI (MOLT-4 leukemia): > 100000 nM | TGI (DLD-1 colon): > 100 µM | TGI (PC-3 prostate): > 100 µM | TGI (SW-620 colon): > 100 µM | TGI (SK-OV-3 ovarian): > 100 µM | TGI (HOP-92 NSCLC): > 100 µM | TGI (UO-31 renal): > 100 µM | TGI (SN12C renal): > 66.7 µM | TGI (SNB-78 CNS): > 100 µM | TGI (OVCAR-3 ovarian): > 100 µM | TGI (MDA-MB-231 breast): > 100 µM | TGI (M14 melanoma): > 100 µM | TGI (DMS 273 small cell lung): > 100 µM | TGI (XF 498 CNS): > 100 µM | TGI (MDA-N): 44.4 µM | TGI (NCI-H522 lung): > 100 µM

Cc1c2ccncc2c(C)c2c1[nH]c1ccc(Cl)cc12
GI50 (UACC-257 melanoma): 5.39 µM and 2.34 µM | TGI (UACC-257 melanoma): 12 µM and 12.8 µM | GI50 (EKVX NSCLC): 3.9 µM | TGI (EKVX NSCLC): 12.6 µM and 19.3 µM | TGI (MCF7 breast): 6.28 µM | GI50 (NCI-H226 lung): 8.58 µM | TGI (NCI-H226 lung): 11 µM and 25.4 µM | TGI (OVCAR-8 ovarian): 4.35 µM and 2.62 µM | GI50 (MALME-3M melanoma): 3.63 µM | TGI (MALME-3M melanoma): 14.3 µM and 15.2 µM | TGI (A498 renal): 14.7 µM | TGI (SK-MEL-5 melanoma): 13.8 µM | TGI (TK-10 renal): 18.1 µM | TGI (NCI/ADR-RES ovarian): 4.75 µM | GI50 (HCT-15 colon): 1410 nM | TGI (HCT-15 colon): 5.17 µM and 3.23 µM | GI50 (OVCAR-4 ovarian): 2420 nM | TGI (OVCAR-4 ovarian): 5.45 µM and 13.4 µM | GI50 (K-562 leukemia): 1210 nM | TGI (K-562 leukemia): 3.67 µM and 3.79 µM | TGI (CCRF-CEM leukemia): 4.43 µM and 6.3 µM | GI50 (IGROV1 ovarian): 3.88 µM | TGI (IGROV1 ovarian): 13.7 µM and 21.1 µM | TGI (HCT-116 colon): 2.98 µM and 5.14 µM | TGI (P388 leukemia): 3.91 µM | GI50 (KM20L2 colon): 3.06 µM | TGI (KM20L2 colon): 9.55 µM | TGI (SNB-75 CNS): 10 µM and 12.7 µM | TGI (SN12K1 renal): 7.81 µM | GI50 (A549 NSCLC): 3.27 µM and 3.56 µM | TGI (A549 NSCLC): 11.2 µM and 15.2 µM | TGI (SK-MEL-2 melanoma): 7.17 µM and 10.9 µM | TGI (M19-MEL melanoma): 7.93 µM and 8.98 µM | GI50 (CAKI-1 renal): 602 nM and 5240 nM | GI50 (SK-MEL-28 melanoma): 1930 nM | TGI (SK-MEL-28 melanoma): 13.3 µM and 3.67 µM | GI50 (COLO 205 colon): 3.09 µM | TGI (COLO 205 colon): 9.41 µM and 15 µM | GI50 (SF-539 CNS): 2090 nM | TGI (SF-539 CNS): 6.68 µM and 7.97 µM | GI50 (DMS 114 small cell lung): 2600 nM | TGI (DMS 114 small cell lung): 6.1 µM and 13 µM | GI50 (KM12 colon): 4.25 µM | TGI (KM12 colon): 5.7 µM and 18.9 µM | TGI (RXF 393 renal): 9.91 µM | GI50 (SF-268 CNS): 2630 nM and 2660 nM | TGI (SF-268 CNS): 12.5 µM and 25.2 µM | TGI (786-0 renal): 2270 nM | GI50 (OVCAR-5 ovarian): 4.32 µM | TGI (OVCAR-5 ovarian): 16.6 µM and 16.3 µM | GI50 (HOP-62 NSCLC): 2660 nM | TGI (HOP-62 NSCLC): 13.9 µM and 9.86 µM | TGI (LXFL 529 NSCLC): 14 µM | GI50 (U251 CNS): 1490 nM | TGI (U251 CNS): 11.5 µM and 2.94 µM | GI50 (RPMI-8226 leukemia): 1770 nM | TGI (RPMI-8226 leukemia): 9.7 µM and 4.43 µM | GI50 (HT29 colon): 1040 nM | TGI (HT29 colon): 9.24 µM and 2.52 µM | GI50 (HL-60(TB) leukemia): 2620 nM | TGI (ACHN renal): 13.1 µM | GI50 (SF-295 CNS): 2.56 µM and 3.56 µM | TGI (SF-295 CNS): 8.38 µM and 15.3 µM | TGI (LOX IMVI melanoma): 6 µM and 2.94 µM | GI50 (UACC-62 melanoma): 4.13 µM | TGI (UACC-62 melanoma): 11.1 µM and 17 µM | GI50 (NCI-H23 lung): 2990 nM | TGI (NCI-H23 lung): 11.2 µM and 15 µM | GI50 (HCC-2998 colon): 2340 nM | TGI (HCC-2998 colon): 19.3 µM and 13.9 µM | GI50 (SNB-19 CNS): 3000 nM | TGI (SNB-19 CNS): 8.36 µM and 15.5 µM | TGI (HOP-18 NSCLC): 18 µM | GI50 (NCI-H460 lung): 3.08 µM | TGI (NCI-H460 lung): 4.46 µM and 12.2 µM | GI50 (MOLT-4 leukemia): 910 nM and 471 nM | TGI (MOLT-4 leukemia): 2590 nM and 2770 nM | GI50 (DLD-1 colon): 1670 nM | TGI (DLD-1 colon): 8.14 µM and 4.89 µM | TGI (P388/ADR leukemia): 10.2 µM | GI50 (SW-620 colon): 1040 nM | TGI (SW-620 colon): 9.35 µM and 2.6 µM | GI50 (SK-OV-3 ovarian): 12.2 µM | TGI (SK-OV-3 ovarian): 17.9 µM and 31.1 µM | GI50 (HOP-92 NSCLC): 6.56 µM and 1.93 µM | TGI (HOP-92 NSCLC): 17.5 µM and 9.11 µM | GI50 (UO-31 renal): 4.44 µM | TGI (UO-31 renal): 8.15 µM and 16.3 µM | GI50 (SN12C renal): 1410 nM | TGI (SN12C renal): 10.1 µM and 7.46 µM | GI50 (SNB-78 CNS): 3.07 µM | TGI (SNB-78 CNS): 22.5 µM and 20.4 µM | GI50 (OVCAR-3 ovarian): 4.62 µM | TGI (OVCAR-3 ovarian): 5.71 µM and 16.6 µM | TGI (M14 melanoma): 16.7 µM | TGI (DMS 273 small cell lung): 5.75 µM | GI50 (XF 498 CNS): 1410 nM | TGI (XF 498 CNS): 9.43 µM and 2.71 µM | TGI (NCI-H522 lung): 9.18 µM and 17.1 µM
